Reference: patent US5625044A, “Methods for the preparation of pure homologous series of mono to tetra fatty acyl esters of sugars and pharmaceutical formulations useful in the treatment of cancer” (Goudreau Gage Dubec & Martineau, priority 1994, dated 1997)
“Also recorded” adds a separate entry of the source.

Legend:
[1] = Tolerance and immunosuppression of angiostatic steroids
Method: The doses were: 150 mg/kg of body weight/day for the first two days, 125 mg/kg of body weight/day for the next two days, 100 mg/kg of body weight/day for the next two days, and then a maintenance dose of 75 mg/kg of body weight/day was used for the remaining duration of the treatment, for a total of 20-25 days. […] Therefore, the dosage rate of steroids might also be adjusted, according to the patients' response, which is left to the clinician;

[2] = in vivo; cited from earlier work
[3] = Degradation of labelled maltose palmitates in tissues (14C/3H ratio of ethanolic extract); parameters: species or system mice; conditions: mouse, in vivo
Method: The ^3 H-palmitoyl chloride and the ^14 C-maltose (as prepared earlier) were mixed in a total volume of 500 μl of dimethyl formamide (DMF). To the mixture was added 100 μl pyridine and the contents were heated for 14 h at 60° C. in a nitrogen atmosphere. The product was then evaporated under reduced pressure at 60° C. to remove the solvents. It was dissolved in 400 μl of absolute ethanol. Pyridine hydrochloride was removed by adding the dissolved crude reaction product to 1 ml ice cold water in an Eppendorf tube. The resulting suspension was centrifuged at 4° C. for 10 min and the supernatant was discarded. The product was dried for 48 hours in a vacuum desiccator and then was extracted with three 10 μl portions of methanol at room temperature. The methanol extract was subjected to reverse phase HPLC using a methanol eluent and detection at 214 nm at a flow rate of 0.5 ml/min and a 3.9 mn×15 cm Waters Resolve C18 5μ column. Two components eluting at 19.1 and 24.1 min which corresponded to the two isomers of maltose tetrapalmitate were collected. […] The tissue extracts were analyzed for ^3 H and ^14 C for non metabolized MTP and its degradation products by scintillation counting. […]
The ratio of degradation calculated on the basis of slope of ^14 C/^3 H ratio between 24 h and 48 h, in ethanolic extract indicated the following order of degradation, with liver taken as 100: […]

Naik As cells = assay: In vitro growth inhibition of angiosarcoma cell line Naik-AS; type: cell-based
From the text: The in vitro growth of an angiosarcoma cell line (Naik-AS) developed by us was studied in the presence and absence of maltose tri- and tetrapalmitates.

C3HBA = assay: Antitumor activity of maltose palmitates against C3HBA fragment implanted s.c. in C3H/HeN females; type: in vivo, C3H/HeN mice; conditions: ip. 3 times weekly, 10 μg (individual palmitates)
From the text: The scientific and patent literature on tri-fatty acyl disaccharides is non existent. This compound has not been obtained as a single entity. The compound forms complexes and rarely appeared as a pure band in our investigations. However, when the mixture is subjected to HPLC as described in I, we obtain sufficient quantities of di, tri and tetra palmitates. This allowed us to test each of these components individually and in combinations. Briefly, the following results were obtained using C3HBA fragment implanted s.c. in C3H/HeN females.

[4] = system: cultured endothelial cells; type: in vitro ADME
tumor cells = assay: Antitumor activity of individual maltose palmitates (summary statements); type: in vivo; conditions: comparison of maltose palmitates
[5] = rodents, 150 down to 75 mg/kg of body weight/day, 20-25 days

Q: For CC(=O)[C@@]1(O)CC[C@H]2[C@@H]3CCC4=CC(=O)CC[C@]4(C)[C@H]3CC[C@@]21C [17-β-OH progesterone], which “tolerance at high doses” value [1, 5] is on record?
A: rodents tolerate them

Q: With C[C@]12CCC(=O)C=C1CC[C@@H]1[C@@H]2CC[C@@]2(C)[C@H]1CC[C@]2(O)C(=O)CO [cortexolone] as the compound, how does the “tolerance at high doses” value ([1]; in vivo) read?
A: rodents tolerate them

Q: Which results are given for C[C@]12CCC(=O)C=C1CC[C@@H]1[C@@H]2[C@@H](O)C[C@@]2(C)[C@H]1CC[C@]2(O)C(=O)CO [hydrocortisone]?
A: tolerance at high doses [1, 5]: rodents tolerate them; immunosuppression [2]: at high doses, it is immunosuppressive; also recorded: highly immunosuppressive

Q: Which “retention time in tissues / degradation, in words” value [3] does the source give for CCCCCCCCCCCCCCCC(=O)OC[C@H]1O[C@H](O[C@H]2[C@H](O)[C@@H](O)C(OC(=O)CCCCCCCCCCCCCCC)O[C@@H]2COC(=O)CCCCCCCCCCCCCCC)[C@H](O)[C@@H](O)[C@@H]1O (stereo partly shown) [maltose tripalmitate, maltose 1, 6, 6' tri palmitate] here?
A: followed by maltose tripalmitate

Q: And the “% Inhibition of growth of Naik As cells in culture” value (“% Inhibition” for short) (Naik As cells; 5 μg/ml, 30 hours)?
A: 30%

Q: And the “% Inhibition” value (Naik As cells; 5 μg/ml, 60 hours)?
A: 17%

Q: What about the “% Inhibition” value (Naik As cells; 5 μg/ml, 105 hours) of the same compound?
A: 10%

Q: What about the “% Inhibition” value (Naik As cells; .625 μg/ml, 30 hours) of the same compound?
A: 25%

Q: What about the “% Inhibition” value (Naik As cells; .625 μg/ml, 60 hours) of the same compound?
A: 11%

Q: What about the “% Inhibition” value (Naik As cells; .625 μg/ml, 105 hours) of the same compound?
A: 4%

Q: And the “in vitro growth of angiosarcoma cell line (Naik-AS), in words” value (Naik As cells; time course in words)?
A: inhibited growth on the first 30 hours which response declined as it got degraded

Q: What about the “Day of tumor appearance after implantation” value (C3HBA) of the same compound?
A: 14 to 16 days

Q: And the “degradation by cultured endothelial cells” value [4]?
A: Degradation also occurred

Q: And the “antitumor activity, in words” value (tumor cells)?
A: most active component

Q: For C[C@]12CC[C@@H](O)C[C@H]1CC[C@@H]1[C@@H]2CC[C@@]2(C)[C@H]1CC[C@]2(O)C(=O)CO [tetra hydro S], which “tolerance at high doses” value [1, 5] is on record?
A: rodents tolerate them
